PMC7230232, “Secondary Metabolites from the Culture of the Marine-derived Fungus Paradendryphiella salina PC 362H and Evaluation of the Anticancer Activity of Its Metabolite Hyalodendrin” (Marine Drugs, 2020)
Several values for one entry are separate records, joined by “and”; a condition that tells them apart may be missing. Equal values may be shown once. Read-outs that look alike come from different tables or passages of the source.

Assays:
[1] = test system: 3T3-F442A cells; assay: MTT cell viability assay, 3T3-F442A pre-adipocytes; type: cell-based, murine; conditions: Mus musculus
Procedure: (§1) Cellular viability was determined by the MTT (methylthiazolyldiphenyl-tetrazolium bromide) assay. Briefly, cells were exposed to the indicated concentrations of crude extracts or compounds 1–4 for five doubling times and then incubated for 3 h at 37 °C with MTT. Formazan crystals were then dissolved in DMSO and optical density measured at 570 nm in a microplate reader. The half-maximal inhibitory concentration (IC50) was determined. Values given for crude extracts are averages of at least two experiments done in duplicate. IC50 values calculated for the four isolated compounds and the commercially available 4-hydroxy-tamoxifen (Sigma-Aldrich) are averages of at least three experiments done in duplicate.

[2] = test system: MDA-MB-231; assay: MTT cell viability assay, MDA-MB-231; type: cell-based; conditions: Homo sapiens, breast, mesenchymal, invasive
Procedure: as §1

[3] = test system: DLD1; assay: MTT cell viability assay, DLD1; type: cell-based; conditions: Homo sapiens, DLD-1; colon
Procedure: as §1

[4] = test system: HT29; assay: MTT cell viability assay, HT29; type: cell-based; conditions: Homo sapiens, HT-29; colon
Procedure: as §1

[5] = test system: HT29 5FU; assay: MTT cell viability assay, HT29 5FU; type: cell-based; conditions: Homo sapiens, HT-29; colon; 5-fluorouracil resistant
Procedure: as §1

[6] = test system: HCT116 5FU; assay: MTT cell viability assay, HCT116 5FU; type: cell-based; conditions: Homo sapiens, HCT-116; colon; 5-fluorouracil resistant
Procedure: as §1

[7] = test system: LS513; assay: MTT cell viability assay, LS513; type: cell-based; conditions: Homo sapiens, LS-513; colon
Procedure: as §1

[8] = test system: SW480; assay: MTT cell viability assay, SW480; type: cell-based; conditions: Homo sapiens, colon
Procedure: as §1

[9] = test system: HeLa; assay: MTT cell viability assay, HeLa; type: cell-based; conditions: Homo sapiens, cervix
Procedure: as §1

[10] = target: cytoplasmic GAPDH from Arabidopsis thaliana (AtGAPDH) (Arabidopsis thaliana, UniProt P25858); assay: Covalent adduct formation with GAPDH by MALDI-TOF mass spectrometry; type: binding; conditions: data not shown
Chain of cytoplasmic GAPDH from Arabidopsis thaliana (AtGAPDH) (P25858 whole entry): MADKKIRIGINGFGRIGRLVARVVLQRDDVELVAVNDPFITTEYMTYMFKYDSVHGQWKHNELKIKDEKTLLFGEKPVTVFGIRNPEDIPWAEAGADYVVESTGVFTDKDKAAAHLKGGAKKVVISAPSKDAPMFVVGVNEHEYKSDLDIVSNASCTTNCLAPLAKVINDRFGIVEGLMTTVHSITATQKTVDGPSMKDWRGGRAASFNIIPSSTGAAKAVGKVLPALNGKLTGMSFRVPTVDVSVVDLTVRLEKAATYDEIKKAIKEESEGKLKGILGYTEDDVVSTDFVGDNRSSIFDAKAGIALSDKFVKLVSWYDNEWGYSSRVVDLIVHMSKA
Source text: Compound 3 is a member of the epidithiodioxopiperazines, a class of natural products characterized by a sulfur-bridged dioxopiperazine that is believed to play an important role in their biological activity. […] The role of the sulfur-bridged dioxopiperazine in the activity of epidithiodioxopiperazines has been attributed to two main mechanisms: (1) mixed disulfide formation with proteins and (2) production of reactive oxygen species (ROS) upon the formation of the disulfide bond after reduction by a cellular reductant. […] To test whether 3 might act through these two processes, we first assessed its propensity to form in vitro covalent adducts with the glycolytic glyceraldehyde-3-phosphate dehydrogenase enzyme (GAPDH). GAPDH is a widely used model protein to study molecular mechanism of thiol-based post-translational modifications as its catalytic cysteine is prone to multiple reversible and irreversible oxidation states. […] Trxs are small ubiquitous thiol/disulfide oxidoreductases with multiple recognized roles in cellular processes and human diseases including cancers. However, since mammal NTR is a selenoprotein that is not easily produced recombinantly, we used here the thioredoxin system from the eukaryotic yeast Saccharomyces cerevisiae (Figure 6). […]

[11] = test system: MCF7-Sh-WISP2 cells; assay: Cell cycle progression by propidium iodide flow cytometry; type: cell-based, human; conditions: 380 nM
Procedure: Figure S5. Cell cycle progression of MCF7-Sh-WISP2 cells in response to compound 3 exposure.
After treatment with 380 nM of 3 (hyalodendrin) (corresponding to 1.9 10-5 nmol of drug per cell), cells were collected, counted and fixed with 70 % ethanol. Cells were then stained with 40 μg/mL propidium iodide (PI) (Biolegend) containing RNaseA (100 µg/mL), prior analysis on a Gallios flow cytometer (Beckman Coulter, Inc, Villepinte, France). The results were analyzed using the Venturi One V6 software (Applied Cytometry).
(1 picture or pasted object on this page, not shown here)

Structure (SMILES): CN1C(=O)[C@@]2(Cc3ccccc3)SS[C@]1(CO)C(=O)N2C [Compound 3, (3R, 6R) Hyalodendrin]
- IC50 ([1]; read-out: IC50 3T3-F442A): 0.099 µg/mL and 300 nM
- IC50 ([1]; read-out: IC50 3T3F442A): 305 ± 4.2 nM
- IC50 [2]: 132 ± 13.4 nM
- IC50 [3]: 40 ± 5.8 nM
- IC50 [4]: 58 ± 13.7 nM
- IC50 [5]: 147 ± 10.2 nM
- IC50 [6]: 72 ± 10.9 nM
- IC50 [7]: 78 ± 9.3 nM
- IC50 [8]: 164 ± 11 nM
- IC50 [9]: 69 ± 9.9 nM
- mixed disulfide formation with catalytic cysteine of AtGAPDH (mass shift) [10]: not able to form a mixed disulfide
- cell cycle progression [11]: no significant changes
